Test results reported in US20250171447A1, “ADENOSINE RECEPTOR ANTAGONISTS, PHARMACEUTICAL COMPOSITIONS AND THEIR USE THEREOF” (Merck Sharp & Dohme LLC, priority 2022, published 2025).
pIC50: −log10 of the molar value.

Molecular target: human A2A adenosine receptor (Homo sapiens (Human), UniProt P29274)
Assay: A2A receptor affinity binding assay (radioligand filtration binding or SPA, [3H]SCH58261)
Conditions: membranes from HEK293 or CHO cells expressing human A2A; Method (A) filtration or Method (B) SPA

Sequence of human A2A adenosine receptor (P29274 whole entry): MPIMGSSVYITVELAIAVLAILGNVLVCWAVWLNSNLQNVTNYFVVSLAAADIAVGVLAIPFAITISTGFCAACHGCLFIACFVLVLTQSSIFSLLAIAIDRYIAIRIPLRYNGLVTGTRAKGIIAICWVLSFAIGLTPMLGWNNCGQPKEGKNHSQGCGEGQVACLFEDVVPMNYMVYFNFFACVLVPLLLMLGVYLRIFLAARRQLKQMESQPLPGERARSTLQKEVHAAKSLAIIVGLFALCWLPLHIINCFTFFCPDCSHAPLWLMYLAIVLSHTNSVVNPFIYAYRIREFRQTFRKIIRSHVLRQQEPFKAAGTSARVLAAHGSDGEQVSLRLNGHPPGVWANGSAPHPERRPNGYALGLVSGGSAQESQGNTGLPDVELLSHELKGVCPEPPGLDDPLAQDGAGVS

SMILES	pIC50
Cc1nc(C(C)(C)N)cnc1[C@H]1C[C@H](c2nc3c4cccc(F)c4nc(N)n3n2)C1 [Ex-133, 2-{trans-3-[5-(2-aminopropan-2-yl)-3-methylpyrazin-2-yl]cyclobutyl}-7-fluoro[1,2,4]triazolo[1,5-c]quinazolin-5-amine]	8.24
COc1cccc2c1nc(N)n1nc([C@H]3C[C@H](c4ncc5c(n4)CNC5)C3)nc21 (single isomer, unassigned) [Ex-108, 2-((trans)-3-(6,7-dihydro-5H-pyrrolo[3,4-d]pyrimidin-2-yl)cyclobutyl)-7-methoxy-[1,2,4]triazolo[1,5-c]quinazolin-5-amine]	7.97
COc1cccc2c1nc(N)n1nc([C@H]3C[C@@H](c4ccc([C@@]5(C(F)(F)F)CCCCN5)cc4)C3)nc21 [Ex-99, 7-methoxy-2-(cis-3-{4-[(2R)-2-(trifluoromethyl)piperidin-2-yl]phenyl}cyclobutyl)[1,2,4]triazolo[1,5-c]quinazolin-5-amine]	9.22
COc1cccc2c1nc(N)n1nc([C@H]3C[C@@H](c4ccc(C(N)C(F)(F)F)cc4)C3)nc21 (single isomer, unassigned) [Ex-76, 2-{cis-3-[4-(1-amino-2,2,2-trifluoroethyl)phenyl]cyclobutyl}-7-methoxy[1,2,4]triazolo[1,5-c]quinazolin-5-amine]	9.30
COc1cccc2c1nc(N)n1nc([C@H]3C[C@@H](c4ccc(C(C)(C)O)cc4)C3)nc21 [Ex-42, 2-(4-((1s,3s)-3-(5-amino-7-methoxy-[1,2,4]triazolo[1,5-c]quinazolin-2-yl)cyclobutyl)phenyl)propan-2-ol]	9.22
COc1cc(F)cc2c1nc(N)n1nc([C@H]3C[C@@H](c4ccccc4C(C)(C)O)C3)nc21 (single isomer, unassigned) [Ex-52]	8.52
COc1cccc2c1nc(N)n1nc([C@H]3C[C@@H](c4cc(C)c(C(C)(C)N)cn4)C3)nc21 [Ex-80, 2-{cis-3-[5-(2-aminopropan-2-yl)-4-methylpyridin-2-yl]cyclobutyl}-7-methoxy[1,2,4]triazolo[1,5-c]quinazolin-5-amine]	8.35
COc1cccc2c1nc(N)n1nc([C@H]3C[C@H](c4cnc(CN)nc4)C3)nc21 [Ex-113, 2-{trans-3-[2-(aminomethyl)pyrimidin-5-yl]cyclobutyl}-7-methoxy[1,2,4]triazolo[1,5-c]quinazolin-5-amine]	8.66
COc1cccc2c1nc(N)n1nc([C@H]3C[C@@H](c4ncc(C(C)(C)N)cc4Cl)C3)nc21 (single isomer, unassigned) [Ex-88, 2-{cis-3-[5-(2-aminopropan-2-yl)-3-chloropyridin-2-yl]cyclobutyl}-7-methoxy[1,2,4]triazolo[1,5-c]quinazolin-5-amine]	8.18
COc1cccc2c1nc(N)n1nc([C@H]3C[C@@H](c4cnc(N5CCN[C@H](C)C5)c(C)c4)C3)nc21 [Ex-101, 7-methoxy-2-(cis-3-{5-methyl-6-[(3R)-3-methylpiperazin-1-yl]pyridin-3-yl}cyclobutyl)[1,2,4]triazolo[1,5-c]quinazolin-5-amine]	9.15
COc1cccc2c1nc(N)n1nc([C@H]3C[C@H](c4ccc([C@@H](N)C(F)(F)F)cn4)C3)nc21 (single isomer, unassigned) [Ex-93]	8.64
COc1cccc2c1nc(N)n1nc([C@H]3C[C@H](c4ccc([C@@H](N)C(F)F)cn4)C3)nc21 (single isomer, unassigned) [Ex-106]	8.39
COc1cccc2c1nc(N)n1nc([C@H]3C[C@@H](c4ccc(CN5CCNCC5)cc4)C3)nc21 [Ex-97, 7-methoxy-2-(cis-3-{4-[(piperazin-1-yl)methyl]phenyl}cyclobutyl)[1,2,4]triazolo[1,5-c]quinazolin-5-amine]	9.52
COc1cccc2c1nc(N)n1nc([C@H]3C[C@@H](c4ccc(N5CCN(C)CC5)nc4)C3)nc21 [Ex-115, 7-methoxy-2-{cis-3-[6-(4-methylpiperazin-1-yl)pyridin-3-yl]cyclobutyl}[1,2,4]triazolo[1,5-c]quinazolin-5-amine]	8.77
COc1cccc2c1nc(N)n1nc([C@H]3C[C@@H](c4ncc(C5(O)COC5)cc4C)C3)nc21 [Ex-119, 3-{6-[cis-3-(5-amino-7-methoxy[1,2,4]triazolo[1,5-c]quinazolin-2-yl)cyclobutyl]-5-methylpyridin-3-yl}oxetan-3-ol]	8.74
COc1cccc2c1nc(N)n1nc([C@H]3C[C@@H](c4ccc(C5(N)CC(F)(F)C5)cn4)C3)nc21 [Ex-140, 2-((1s,3s)-3-(5-(1-amino-3,3-difluorocyclobutyl)pyridin-2-yl)cyclobutyl)-7-methoxy-[1,2,4]triazolo[1,5-c]quinazolin-5-amine]	8.27
COc1cccc2c1nc(N)n1nc([C@H]3C[C@@H](c4ccc([C@H](N)C(F)F)cn4)C3)nc21 (single isomer, unassigned) [Ex-105]	8.57
COc1cccc2c1nc(N)n1nc([C@H]3C[C@H](c4ccc(C(N)C(F)F)cn4)C3)nc21 (stereo partly drawn) [Ex-73, 2-{trans-3-[5-(1-amino-2,2-difluoroethyl)pyridin-2-yl]cyclobutyl}-7-methoxy[1,2,4]triazolo[1,5-c]quinazolin-5-amine]	8.32

SMILES	pIC50
COc1cccc2c1nc(N)n1nc([C@H]3C[C@@H](c4ncc5c(n4)CCNC5)C3)nc21 (single isomer, unassigned) [Ex-111, 7-methoxy-2-[(cis)-3-(5,6,7,8-tetrahydropyrido[4,3-d]pyrimidin-2-yl)cyclobutyl][1,2,4]triazolo[1,5-c]quinazolin-5-amine]	6.93
COc1cccc2c1nc(N)n1nc(C3CC(c4ccc([C@@H](N)C(F)(F)F)nc4)C3)nc21 (stereo partly drawn) [Ex-96, 2-[(1r,3r)-3-{6-[(1R)-1-amino-2,2,2-trifluoroethyl]pyridin-3-yl}cyclobutyl]-7-methoxy[1,2,4]triazolo[1,5-c]quinazolin-5-amine]	7.85
COc1cccc2c1nc(N)n1nc([C@H]3C[C@@H](c4ccc([C@H](N)C(F)(F)F)cn4)C3)nc21 [Ex-78, 2-(cis-3-{5-[(1S)-1-amino-2,2,2-trifluoroethyl]pyridin-2-yl}cyclobutyl)-7-methoxy[1,2,4]triazolo[1,5-c]quinazolin-5-amine]	8.72
COc1cccc2c1nc(N)n1nc([C@H]3C[C@@H](c4ccc(C(C)(N)C(F)F)nc4)C3)nc21 (some centres unmarked) [Ex-91, 2-{(1s,3s)-3-[6-(2-amino-1,1-difluoropropan-2-yl)pyridin-3-yl]cyclobutyl}-7-methoxy[1,2,4]triazolo[1,5-c]quinazolin-5-amine]	8.96
COc1cccc2c1nc(N)n1nc([C@H]3C[C@H](c4ncc(C5(O)COC5)cc4C)C3)nc21 [Ex-120, 3-{6-[trans-3-(5-amino-7-methoxy[1,2,4]triazolo[1,5-c]quinazolin-2-yl)cyclobutyl]-5-methylpyridin-3-yl}oxetan-3-ol]	9.30
COc1cccc2c1nc(N)n1nc([C@H]3C[C@H](c4cc(C)c(C(C)(C)N)cn4)C3)nc21 [Ex-81, 2-{trans-3-[5-(2-aminopropan-2-yl)-4-methylpyridin-2-yl]cyclobutyl}-7-methoxy[1,2,4]triazolo[1,5-c]quinazolin-5-amine]	8.32
COc1cccc2c1nc(N)n1nc([C@H]3C[C@H](c4ccc([C@H](N)C(F)(F)F)cn4)C3)nc21 [Ex-77, 2-(trans-3-{5-[(1S)-1-amino-2,2,2-trifluoroethyl]pyridin-2-yl}cyclobutyl)-7-methoxy[1,2,4]triazolo[1,5-c]quinazolin-5-amine]	8.89
COc1cccc2c1nc(N)n1nc([C@H]3C[C@@H](c4ccc([C@@H](N)C(F)F)cn4)C3)nc21 (single isomer, unassigned) [Ex-107]	8.09
COc1cccc2c1nc(N)n1nc([C@H]3C[C@@H](c4ccc(C(N)C(F)F)cn4)C3)nc21 (stereo partly drawn) [Ex-74, 2-{cis-3-[5-(1-amino-2,2-difluoroethyl)pyridin-2-yl]cyclobutyl}-7-methoxy[1,2,4]triazolo[1,5-c]quinazolin-5-amine]	8.40
COc1cccc2c1nc(N)n1nc([C@H]3C[C@H](c4ccc([C@H](N)C(F)F)cn4)C3)nc21 (single isomer, unassigned) [Ex-104]	8.59
COc1cccc2c1nc(N)n1nc([C@H]3C[C@@H](c4cnc(CN)nc4)C3)nc21 [Ex-112, 2-{(cis)-3-[2-(aminomethyl)pyrimidin-5-yl]cyclobutyl}-7-methoxy[1,2,4]triazolo[1,5-c]quinazolin-5-amine]	8.38
COc1cc(F)cc2c1nc(N)n1nc([C@H]3C[C@@H](c4ccc(C(C)(C)O)cc4)C3)nc21 [Ex-50, 2-{4-[cis-3-(5-amino-9-fluoro-7-methoxy [1,2,4]triazolo [1,5-c]quinazolin-2-yl)cyclobutyl]phenyl} propan-2-ol]	9.00
Cc1nc(C(C)(C)N)cnc1[C@H]1C[C@@H](c2nc3c4cccc(F)c4nc(N)n3n2)C1 [Ex-134, 2-{cis-3-[5-(2-aminopropan-2-yl)-3-methylpyrazin-2-yl]cyclobutyl}-7-fluoro[1,2,4]triazolo[1,5-c]quinazolin-5-amine]	6.83
COc1cccc2c1nc(N)n1nc([C@H]3C[C@@H](c4ccc([C@@H](N)C(F)(F)F)cn4)C3)nc21 (single isomer, unassigned) [Ex-94]	8.42
COc1cccc2c1nc(N)n1nc([C@H]3C[C@H](c4ccc(CN5CCNCC5)cc4)C3)nc21 [Ex-98, 7-methoxy-2-(trans-3-{4-[(piperazin-1-yl)methyl]phenyl}cyclobutyl)[1,2,4]triazolo[1,5-c]quinazolin-5-amine]	8.80
COc1cccc2c1nc(N)n1nc([C@H]3C[C@H](c4ncc5c(n4)CCNC5)C3)nc21 (single isomer, unassigned) [Ex-110, 7-methoxy-2-[(trans)-3-(5,6,7,8-tetrahydropyrido[4,3-d]pyrimidin-2-yl)cyclobutyl][1,2,4]triazolo[1,5-c]quinazolin-5-amine]	7.78
COc1cccc2c1nc(N)n1nc([C@H]3C[C@@H](c4ccc([C@@H](N)C(F)(F)F)nc4)C3)nc21 [Ex-95, 2-[(1s,3s)-3-{6-[(1R)-1-amino-2,2,2-trifluoroethyl]pyridin-3-yl}cyclobutyl]-7-methoxy[1,2,4]triazolo[1,5-c]quinazolin-5-amine]	8.54
